According to ChEMBL document CHEMBL3885861, “Open TG-GATES”:

Organism: Rattus norvegicus
Assay: Open TG-GATES - Regimen: Daily Repeat
Assay type: toxicity, organism-based, Sprague-Dawley
Parameters: regimen Daily Repeat, gender Male, age 6 weeks
Settings: in vivo, iv, route intravenous injection; for APTT / Bas / Eos / Fbg / Hb / Ht / Lym / MCH / MCHC / MCV / Mono / Neu / PT / Plat / RBC / Ret / WBC: tissue Blood; for KIDNEY_L / KIDNEY_R / KIDNEY_TOTAL: tissue Kidney; for LIVER: tissue Liver; for A/G / ALP / ALT / AST / BUN / CRE / Ca / Cl / DBIL / GLC / IP / K / LDH / Na / PL / RALB / TBIL / TC / TG / TP / gamma-GTP: tissue Plasma
[1] = 0 mg/kg, 72 h, dose level Control, time 3 day
[2] = 0 mg/kg, […], dose level Control, time 7 day
[3] = 0 mg/kg, […], dose level Control, time 14 day
[4] = 0 mg/kg, […], dose level Control, time 28 day
[5] = 2 mg/kg, 72 h, dose level Low, time 3 day
[6] = 2 mg/kg, […], dose level Low, time 7 day
[7] = 2 mg/kg, […], dose level Low, time 14 day
[8] = 2 mg/kg, […], dose level Low, time 28 day

## NCCBr [BROMOETHANAMINE]
[1]
  TERMINAL_BW: 229.6 g
  APTT: 23.7 s
  Bas: 0%
  Eos: 1%
  Fbg: 290.6 mg/dL
  Hb: 13.5 g/dL
  Ht: 39.3%
  Lym: 82.2%
  MCH: 21 pg
  MCHC: 34.4%
  MCV: 61.2 fL
  Mono: 2%
  Neu: 13.6%
  PT: 16.3 s
  Plat: 122.8 x10_4/uL
  RBC: 641.2 x10_4/ul
  Ret: 4.8%
  WBC: 116.1 x10_2/uL
  KIDNEY_L: 1 g
  KIDNEY_R: 1 g
  KIDNEY_TOTAL: 2 g
  LIVER: 10.3 g
  A/G: 1.2
  ALP: 1818.6 IU/L
  ALT: 45.2 IU/L
  AST: 72.2 IU/L
  BUN: 16 mg/dL
  CRE: 0.2 mg/dL
  Ca: 10.7 mg/dL
  Cl: 106 meq/L
  DBIL: 0 mg/dL
  GLC: 181 mg/dL
  IP: 7.7 mg/dL
  K: 4.7 meq/L
  LDH: 170 IU/L
  Na: 141.4 meq/L
  PL: 132 mg/dL
  RALB: 3 g/dL
  TBIL: 0.006 mg/dL
  TC: 68.4 mg/dL
  TG: 76 mg/dL
  TP: 5.5 g/dL
  gamma-GTP: 1.4 IU/L
[2]
  TERMINAL_BW: 257 g
  APTT: 23.2 s
  Bas: 0%
  Eos: 1%
  Fbg: 288.8 mg/dL
  Hb: 13.7 g/dL
  Ht: 39.5%
  Lym: 82.8%
  MCH: 21 pg
  MCHC: 34.6%
  MCV: 60.9 fL
  Mono: 2.4%
  Neu: 13.2%
  PT: 15.9 s
  Plat: 132.6 x10_4/uL
  RBC: 649.4 x10_4/ul
  Ret: 4.4%
  WBC: 113.7 x10_2/uL
  KIDNEY_L: 1.1 g
  KIDNEY_R: 1.1 g
  KIDNEY_TOTAL: 2.2 g
  LIVER: 11.9 g
  A/G: 1.1
  ALP: 1565.4 IU/L
  ALT: 39 IU/L
  AST: 68.2 IU/L
  BUN: 17.6 mg/dL
  CRE: 0.2 mg/dL
  Ca: 10.7 mg/dL
  Cl: 104.6 meq/L
  DBIL: 0 mg/dL
  GLC: 188.2 mg/dL
  IP: 6.9 mg/dL
  K: 4.7 meq/L
  LDH: 190.6 IU/L
  Na: 139.8 meq/L
  PL: 138.6 mg/dL
  RALB: 2.9 g/dL
  TBIL: 0.008 mg/dL
  TC: 71.2 mg/dL
  TG: 94.8 mg/dL
  TP: 5.5 g/dL
  gamma-GTP: 2.4 IU/L
[3]
  TERMINAL_BW: 314.6 g
  APTT: 23.9 s
  Bas: 0%
  Eos: 1.2%
  Fbg: 301 mg/dL
  Hb: 14 g/dL
  Ht: 40.1%
  Lym: 85%
  MCH: 20.6 pg
  MCHC: 34.9%
  MCV: 59 fL
  Mono: 2.2%
  Neu: 10.6%
  PT: 15.9 s
  Plat: 117.9 x10_4/uL
  RBC: 680.2 x10_4/ul
  Ret: 3.6%
  WBC: 89.2 x10_2/uL
  KIDNEY_L: 1.3 g
  KIDNEY_R: 1.3 g
  KIDNEY_TOTAL: 2.6 g
  LIVER: 13.5 g
  A/G: 1.1
  ALP: 1268.2 IU/L
  ALT: 42 IU/L
  AST: 72.8 IU/L
  BUN: 18.4 mg/dL
  CRE: 0.2 mg/dL
  Ca: 10.9 mg/dL
  Cl: 106 meq/L
  DBIL: 0 mg/dL
  GLC: 183.8 mg/dL
  IP: 7.4 mg/dL
  K: 4.5 meq/L
  LDH: 176 IU/L
  Na: 143.8 meq/L
  PL: 139.2 mg/dL
  RALB: 3.1 g/dL
  TBIL: 0.004 mg/dL
  TC: 71.6 mg/dL
  TG: 97.8 mg/dL
  TP: 5.8 g/dL
  gamma-GTP: 2.4 IU/L
[4]
  TERMINAL_BW: 359.9 g
  APTT: 25.5 s
  Bas: 0%
  Eos: 1.8%
  Fbg: 297 mg/dL
  Hb: 15.7 g/dL
  Ht: 42.5%
  Lym: 84.8%
  MCH: 20.6 pg
  MCHC: 36.9%
  MCV: 55.8 fL
  Mono: 2%
  Neu: 10.8%
  PT: 16.7 s
  Plat: 100.6 x10_4/uL
  RBC: 762.2 x10_4/ul
  Ret: 2.3%
  WBC: 126.1 x10_2/uL
  KIDNEY_L: 1.3 g
  KIDNEY_R: 1.4 g
  KIDNEY_TOTAL: 2.7 g
  LIVER: 13.9 g
  A/G: 1.1
  ALP: 1244.2 IU/L
  ALT: 39.2 IU/L
  AST: 67.8 IU/L
  BUN: 19.6 mg/dL
  CRE: 0.2 mg/dL
  Ca: 10.4 mg/dL
  Cl: 104.4 meq/L
  DBIL: 0 mg/dL
  GLC: 203.4 mg/dL
  IP: 6.4 mg/dL
  K: 4.2 meq/L
  LDH: 147 IU/L
  Na: 144.2 meq/L
  PL: 137 mg/dL
  RALB: 3.1 g/dL
  TBIL: 0.01 mg/dL
  TC: 66 mg/dL
  TG: 124.4 mg/dL
  TP: 6 g/dL
  gamma-GTP: 2.8 IU/L
[5]
  TERMINAL_BW: 236.2 g
  APTT: 22.5 s
  Bas: 0%
  Eos: 1%
  Fbg: 280.4 mg/dL
  Hb: 13.2 g/dL
  Ht: 38.3%
  Lym: 83.2%
  MCH: 21.2 pg
  MCHC: 34.4%
  MCV: 61.6 fL
  Mono: 2.8%
  Neu: 12%
  PT: 16.2 s
  Plat: 119.2 x10_4/uL
  RBC: 620.8 x10_4/ul
  Ret: 4.7%
  WBC: 80.2 x10_2/uL
  KIDNEY_L: 1 g
  KIDNEY_R: 1 g
  KIDNEY_TOTAL: 2 g
  LIVER: 11.1 g
  A/G: 1.3
  ALP: 1553.4 IU/L
  ALT: 39.6 IU/L
  AST: 68.4 IU/L
  BUN: 16.2 mg/dL
  CRE: 0.2 mg/dL
  Ca: 10.8 mg/dL
  Cl: 106.4 meq/L
  DBIL: 0 mg/dL
  GLC: 178.6 mg/dL
  IP: 7.2 mg/dL
  K: 4.6 meq/L
  LDH: 195.6 IU/L
  Na: 141.8 meq/L
  PL: 143.4 mg/dL
  RALB: 3.1 g/dL
  TBIL: 0.006 mg/dL
  TC: 73.6 mg/dL
  TG: 113 mg/dL
  TP: 5.6 g/dL
  gamma-GTP: 2 IU/L
[6]
  TERMINAL_BW: 254.2 g
  APTT: 22.7 s
  Bas: 0%
  Eos: 0.8%
  Fbg: 278.8 mg/dL
  Hb: 13.5 g/dL
  Ht: 39.3%
  Lym: 80.6%
  MCH: 21 pg
  MCHC: 34.4%
  MCV: 61 fL
  Mono: 2.8%
  Neu: 15%
  PT: 15.8 s
  Plat: 116.6 x10_4/uL
  RBC: 644 x10_4/ul
  Ret: 3.9%
  WBC: 126.7 x10_2/uL
  KIDNEY_L: 1.1 g
  KIDNEY_R: 1.1 g
  KIDNEY_TOTAL: 2.2 g
  LIVER: 11.6 g
  A/G: 1.2
  ALP: 1420.8 IU/L
  ALT: 36.2 IU/L
  AST: 64 IU/L
  BUN: 16.2 mg/dL
  CRE: 0.2 mg/dL
  Ca: 10.7 mg/dL
  Cl: 105.8 meq/L
  DBIL: 0 mg/dL
  GLC: 181 mg/dL
  IP: 7 mg/dL
  K: 4.6 meq/L
  LDH: 158.8 IU/L
  Na: 140.8 meq/L
  PL: 141 mg/dL
  RALB: 2.9 g/dL
  TBIL: 0.01 mg/dL
  TC: 75.2 mg/dL
  TG: 93 mg/dL
  TP: 5.4 g/dL
  gamma-GTP: 2 IU/L
[7]
  TERMINAL_BW: 302.2 g
  APTT: 23 s
  Bas: 0%
  Eos: 1%
  Fbg: 310.8 mg/dL
  Hb: 14.1 g/dL
  Ht: 40.3%
  Lym: 84.8%
  MCH: 20.5 pg
  MCHC: 35%
  MCV: 58.7 fL
  Mono: 2.2%
  Neu: 11.4%
  PT: 15.8 s
  Plat: 116.5 x10_4/uL
  RBC: 686.6 x10_4/ul
  Ret: 3.3%
  WBC: 104.7 x10_2/uL
  KIDNEY_L: 1.2 g
  KIDNEY_R: 1.2 g
  KIDNEY_TOTAL: 2.4 g
  LIVER: 13.5 g
  A/G: 1.1
  ALP: 1559.2 IU/L
  ALT: 40.6 IU/L
  AST: 67.6 IU/L
  BUN: 17.6 mg/dL
  CRE: 0.2 mg/dL
  Ca: 10.9 mg/dL
  Cl: 107 meq/L
  DBIL: 0 mg/dL
  GLC: 184 mg/dL
  IP: 7.1 mg/dL
  K: 4.3 meq/L
  LDH: 168.6 IU/L
  Na: 144.4 meq/L
  PL: 149 mg/dL
  RALB: 3 g/dL
  TBIL: 0 mg/dL
  TC: 75.4 mg/dL
  TG: 123 mg/dL
  TP: 5.7 g/dL
  gamma-GTP: 2.6 IU/L
[8]
  TERMINAL_BW: 366.5 g
  APTT: 24.7 s
  Bas: 0%
  Eos: 1%
  Fbg: 305.8 mg/dL
  Hb: 15.7 g/dL
  Ht: 42.4%
  Lym: 85.4%
  MCH: 20.4 pg
  MCHC: 37.1%
  MCV: 54.9 fL
  Mono: 1.4%
  Neu: 10.6%
  PT: 16.4 s
  Plat: 110.2 x10_4/uL
  RBC: 772.8 x10_4/ul
  Ret: 1.9%
  WBC: 107.8 x10_2/uL
  KIDNEY_L: 1.4 g
  KIDNEY_R: 1.4 g
  KIDNEY_TOTAL: 2.8 g
  LIVER: 15 g
  A/G: 1.1
  ALP: 1213.2 IU/L
  ALT: 40.8 IU/L
  AST: 66 IU/L
  BUN: 18.4 mg/dL
  CRE: 0.2 mg/dL
  Ca: 10.4 mg/dL
  Cl: 105.6 meq/L
  DBIL: 0 mg/dL
  GLC: 188.6 mg/dL
  IP: 6.6 mg/dL
  K: 4.1 meq/L
  LDH: 123 IU/L
  Na: 145.8 meq/L
  PL: 141.8 mg/dL
  RALB: 3.2 g/dL
  TBIL: 0.01 mg/dL
  TC: 67.4 mg/dL
  TG: 133.8 mg/dL
  TP: 6 g/dL
  gamma-GTP: 3 IU/L
